# In US5064826A, “Novel triazolo-pyrimidine derivatives” (priority 1989, dated 1991):
# Tests used:
# [1] = Antidepressant activity shown against tetrabenazine ptosis (T.P.) after p.o. administration; type: in vivo; conditions: for ED50: po, read-out: T.P. ED50; for TI (therapeutic index), T.P.: tetrabenazine ptosis, p.o. administration, TI = therapeutic index = LD50 (so in the source)
# Excerpt: (§1) Antidepressant activity of some of compounds of formulae Ia
# (§2) and Ib shown against tetrabenazine ptosis (T.P.) and
# (§3) analgesic activity in Writhing test (W.t.) after p.o. administration
# TI = therapeutica1 index = LD50
# [2] = Analgesic activity in Writhing test (W.t.) after p.o. administration; type: in vivo; conditions: for ED50: po, read-out: W.t. ED50
# Excerpt: as §1, §2, §3
# TI = therapeutica1 index = LD50
Compound,ED50 [1] [mg/kg],"TI (therapeutic index), T.P. [1]","TI (therapeutic index), W.t. ([2]; Writhing test, p.o. administration, TI = therapeutic index = LD50 (so in the source))",ED50 [2] [mg/kg]
"CN(C)c1nc2[nH]c3c(c(=O)n2n1)SCCC3 [Example 19, 2-Dimethylamino-5,7,8,9-tetrahydrothiopyrano[3,2-d]-1,2,4-triazolo[1,5-a]pyrimidine-5(10H)-one]",2.7,748,,
"O=c1c2c([nH]c3nc(N4CCOCC4)nn13)CCCS2 [Example 21, 2-Morpholino-5,7,8,9-tetrahydrothiopyrano[3,2-d]-1,2,4-triazolo[1,5-a]pyrimidine-5(10H)-one]",5.2,385,,
"CC(C)(C)Nc1nc2[nH]c3c(c(=O)n2n1)SCCC3 [Example 26, 2-t-Butylamino-5,7,8,9-tetrahydrothiopyrano[3,2-d]-1,2,4-triazolo[1,5-a]pyrimidine-5(10H)-one]",,,5.6,355
"O=c1c2c([nH]c3nc(NC4CCCCC4)nn13)CCCS2 [Example 25, 2-Cyclohexylamino-5,7,8,9-tetrahydrothiopyrano[3,2-d]-1,2,4-triazolo[1,5-a]pyrimidine-5(10H)-one]",22.5,87,,
"CC(=O)Nc1ccc(O)cc1 [paracetamol, p(acetylamino)-phenol, reference compound]",,,,421
"CN(C)CCC=C1c2ccccc2CCc2ccccc21 [amitriptyline, 5(3-dimethylaminopropylidene)dibenz/a,d/1,4-cycloheptadiene, reference compound]",12,19,,
